# Reference: patent US20120003655A1, “IDENTIFICATION OF NEUROPROTECTIVE AGENTS USING PRO-INFLAMMATORY HUMAN GLIAL CELLS” (The Salk Institute for Biological Studies, priority 2008, published 2012)
# Experiments:
# [1] = system: recruitment of Nurr1 to the TNFα-promoter; assay: ChIP assay, Nurr1 recruitment to TNFα-promoter in BV2 cells; format: cell-based, mouse; conditions: 30 μM SB21 for 1 h followed by LPS
# Description: (§1) FIGS. 12A-I show Nurr1 acting as an RXR-independent, GSK3β-dependent transrepressor for NF-κB. (FIG. 12A) Nurr1 is recruited to the TNFα-promoter in response to LPS. This recruitment is blocked by the GSK3β-specific inhibitor SB216763 (SB21). BV2 cells were pre-incubated with DMSO or 30 μM SB21 for 1 h followed by LPS stimulation for the indicated times before ChIP assay. […] (FIG. 12B) Nurr1-mediated repression is independent of DNA binding and RXR dimerization. RAW264.7 cells were transfected with wild type Nurr1, P-box mutant Nurr1C280A/E281A (CEAA) and I-box mutant Nurr1K555A/L556A/L227A (KLL). iNOS-promoter activity in RAW264.7 cells measured by luciferase-reporter assay. *, p<0.01 compared to control (Mock). […] Equal loading was determined by re-blotting using anti-Nurr1 antibody. […] Nurr1 expression vector was transfected into RAW264.7 cells together with control siRNA or siRNA against GSK3β and iNOS-promoter activity was determined as described before. *, p<0.01 compared to Nurr1 with control siRNA. (FIG. 12I) S468A mutant of p65 abolishes Nurr1-mediated repression of iNOS-promoter activity. iNOS-promoter activity was determined as described before. […]
# (§2) ChIP assay. […] Quantitative PCR (qPCR) was performed with SYBR-GREEN PCR master Mix (ABI) or SYBR-GreenER (Invitrogen) and analyzed on a 7200 real time PCR system (ABI).
# [2] = system: interaction of Nurr1 and p65; assay: Co-immunoprecipitation of Nurr1 and p65 in LPS-stimulated BV2 cells; format: cell-based, mouse; conditions: SB21 1 h prior to LPS (1 μg/ml), co-IP and Western blot
# Description: as §1, with “(Mock). (FIG. 12C) siRNA against Ubc9 abolishes Nurr1-mediated transrepression of iNOS-promoter activity. *, p<0.01 compared to Nurr1 with control siRNA. (FIG. 12D) K558 and K576 are the predominant SUMOylation sites of Nurr1.” for “(Mock).”
# [3] = system: recruitment of Nurr1 at iNOS-promoter; assay: ChIP assay, Nurr1 recruitment to iNOS-promoter in mouse primary astrocytes; format: cell-based; conditions: SB21 pre-incubation, IL1β stimulation
# Description: FIGS. 15A-I show the CoREST complex requirement for Nurr1-mediated repression in astrocytes. (FIG. 15A) IL1β stimulation enhances physical association of Nurr1 and p65 in mouse primary astrocytes. Lysates of astrocytes stimulated with IL1β (10 ng/ml) for the indicated times were immunoprecipitated with anti-Nurr1 antibody and Western blots were developed with anti-p65 antibody. Equal loading was determined as described in FIG. 12F. (FIG. 15B) Recruitment of Nurr1 and p65 to iNOS-promoter in mouse primary astrocyte shown by ChIP assay. Data represent fold enrichment of iNOS-promoter precipitated with the indicated antibodies compared to control IgG as determined by qPCR. […] Mouse primary astrocytes were treated with SB21 as described in FIG. 12A. Data represent fold enrichment of iNOS-promoter precipitated with antibody against Nurr1 compared to control IgG as determined by qPCR. […] Data represent fold enrichment of iNOS-promoter precipitated with the indicated antibodies compared to control IgG as determined by qPCR. […] Cells were stimulated with 10 ng/ml IL1β for 6 h and mRNA expression of iNOS (FIG. 15F), CSF1 (FIG. 15G) and Ncf1 (FIG. 15H) was determined by qPCR. […]
# as §2
# ALS = ALS patients; cited from earlier work
# [4] = biological target: T1, Nurr1 (NR4A2), endogenous protein in mouse cells (mouse, UniProt Q06219 1-598); assay: co-IP from BV2 lysates, anti-Nurr1 IP, anti-p65 Western blot (FIG. 12F)
# T1 construct: Endogenous protein, immunoprecipitated or blotted with anti-Nurr1 (E-20, Santa Cruz)
# T1 sequence (Q06219 whole entry): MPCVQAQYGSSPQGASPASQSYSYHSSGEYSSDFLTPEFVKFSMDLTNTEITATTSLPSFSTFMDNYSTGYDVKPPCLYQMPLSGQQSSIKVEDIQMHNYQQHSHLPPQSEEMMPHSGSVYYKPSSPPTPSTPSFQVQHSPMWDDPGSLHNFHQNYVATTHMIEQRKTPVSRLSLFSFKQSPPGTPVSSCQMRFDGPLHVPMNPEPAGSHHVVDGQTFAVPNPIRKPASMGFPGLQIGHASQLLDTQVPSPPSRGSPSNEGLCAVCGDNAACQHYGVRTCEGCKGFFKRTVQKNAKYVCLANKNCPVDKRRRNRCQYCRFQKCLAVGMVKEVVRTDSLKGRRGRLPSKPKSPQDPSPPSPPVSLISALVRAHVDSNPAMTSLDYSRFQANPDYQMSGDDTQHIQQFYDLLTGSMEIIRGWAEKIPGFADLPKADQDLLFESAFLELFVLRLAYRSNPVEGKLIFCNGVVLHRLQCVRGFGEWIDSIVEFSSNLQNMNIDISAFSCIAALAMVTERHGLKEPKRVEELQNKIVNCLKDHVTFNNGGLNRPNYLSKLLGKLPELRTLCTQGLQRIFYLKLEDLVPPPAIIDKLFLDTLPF
# Description: Lysates of BV2 cells stimulated with LPS (1 μg/ml) for the indicated times were immunoprecipitated with anti-Nurr1 antibody and Western blots were developed with anti-p65 antibody. Equal loading was determined by re-blotting using anti-Nurr1 antibody. (FIG. 12G) SB21 impairs the binding of Nurr1 and p65 in a dose-dependent manner. BV2 cells were incubated with SB21 at the indicated concentrations for 1 h prior to stimulation with LPS (1 μg/ml). IP and Western blotting were performed as described in FIG. 12F. (FIG. 12H) siRNA against GSK3β abolishes Nurr1-mediated repression of iNOS-promoter activity. Nurr1 expression vector was transfected into RAW264.7 cells together with control siRNA or siRNA against GSK3β and iNOS-promoter activity was determined as described before. *, p<0.01 compared to Nurr1 with control siRNA. (FIG. 12I) S468A mutant of p65 abolishes Nurr1-mediated repression of iNOS-promoter activity. iNOS-promoter activity was determined as described before.
# Co-immunoprecipitations and Western blotting. Hela cells or NIH3T3 cells were transfected using Lipofectamine 2000 reagent (Invitrogen) following manufacturer's protocol. Transfected cells were stimulated by 10 ng/ml recombinant human or mouse mIL1β (R & D system) for the indicated times prior to harvesting. […]
molecule,measurement,setting,value
Cn1cc(C2=C(c3ccc(Cl)cc3Cl)C(=O)NC2=O)c2ccccc21 [SB216763],recruitment of Nurr1 to the TNFα-promoter,[1],blocked
same,recruitment of Nurr1 to the TNFα-promoter,[1]; listed as SB21,prevented the recruitment of Nurr1 to the TNFα-promoter
same,interaction (binding) of Nurr1 and p65,[2],inhibited the interaction of Nurr1 and p65 in BV2 cells in a dose-dependent manner
same,interaction (binding) of Nurr1 and p65,[2]; listed as SB21,impairs the binding of Nurr1 and p65 in a dose-dependent manner
same,recruitment of Nurr1 at iNOS-promoter,[3],Altered recruitment of Nurr1 to iNOS-promoter
same,recruitment of Nurr1 at iNOS-promoter,[3]; listed as SB21,decreases the recruitment of Nurr1 at iNOS-promoter
Nc1nc2ccc(OC(F)(F)F)cc2s1 [riluzole],extension of the course of the disease,ALS,2 months
"NF-κB-p65, endogenous protein in mouse cells (other, UniProt Q04207 1-549, looked up, Endogenous protein, detected with anti-p65 (C-20, Santa Cruz)) MDDLFPLIFPSEPAQASGPYVEIIEQPKQRGMRFRYKCEGRSAGSIPGERSTDTTKTHPTIKINGYTGPGTVRISLVTKDPPHRPHPHELVGKDCRDGYYEADLCPDRSIHSFQNLGIQCVKKRDLEQAISQRIQTNNNPFHVPIEEQRGDYDLNAVRLCFQVTVRDPAGRPLLLTPVLSHPIFDNRAPNTAELKICRVNRNSGSCLGGDEIFLLCDKVQKEDIEVYFTGPGWEARGSFSQADVHRQVAIVFRTPPYADPSLQAPVRVSMQLRRPSDRELSEPMEFQYLPDTDDRHRIEEKRKRTYETFKSIMKKSPFNGPTEPRPPTRRIAVPTRNSTSVPKPAPQPYTFPASLSTINFDEFSPMLLPSGQISNQALALAPSSAPVLAQTMVPSSAMVPLAQPPAPAPVLTPGPPQSLSAPVPKSTQAGEGTLSEALLHLQFDADEDLGALLGNSTDPGVFTDLASVDNSEFQQLLNQGVSMSHSTAEPMLMEYPEAITRLVTGSQRPPDPAPTPLGTSGLPNGLSGDEDFSSIADMDFSALLSQISS",binding result,[4],binds
